{"source": "patent US20200283742A1", "about": "“METHOD FOR IMPROVING ACTIVITY OF PET-DEGRADING ENZYME BY USING ADDITIVE [As Amended]” (KEIO UNIVERSITY, priority 2017, published 2020)", "key": {"PETase [1]": {"target": "T1, PETase (Piscinibacter sakaiensis, UniProt A0A0K8P6T7)", "T1 construct": "made in house; host or cells: Escherichia coli BL21 Codon Plus (DE3) RIPL", "T1 sequence (A0A0K8P6T7 28-290)": "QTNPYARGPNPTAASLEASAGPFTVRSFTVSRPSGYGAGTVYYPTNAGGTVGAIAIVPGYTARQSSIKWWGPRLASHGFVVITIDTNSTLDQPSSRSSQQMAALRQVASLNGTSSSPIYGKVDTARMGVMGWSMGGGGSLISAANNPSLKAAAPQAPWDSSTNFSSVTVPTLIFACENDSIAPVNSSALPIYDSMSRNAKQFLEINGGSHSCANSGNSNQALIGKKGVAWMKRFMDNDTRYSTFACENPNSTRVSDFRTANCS", "experiment": "PET-hydrolyzing activity of PETase on PET film in presence of surfactant (amount of degradation product MHET by HPLC)", "assay_type": "biochemical, Ideonella sp. No. 201-F6 strain", "details": "for PET-hydrolyzing activity compared with control (FIG. 2): surfactant 0.01% (w/v), pre-incubation 30° C. 1 hour, reaction 3 hours; for Relative activity: 0.01% SDS vs control", "method": "In addition to the optimal conditions, a surfactant was added in a concentration of 0.001 to 0.01 (w/v) %, and the activity was then measured. As surfactants, six types of surfactants, namely. [A] Sodium Cholate (SC), [B] 3-[(3-Cholamidopropyl)dimethylammonio]propanesulfonate (CHAPS), [C] Sodium dodecyl sulfate (SDS), [D] Octylphenol ethoxylate (Triton X-114), [E] Polysorbate 80 (Tween 80), [F] and Dodecyltrimethylammoniumu chloride (DTMA-Cl), were used (FIG. 1). The surfactant, a buffer and a film were added to the reaction system, and the obtained mixture was then pre-incubated at 30° C. for 1 hour. Thereafter, the concentration of the enzyme was set at 50 nM, the film area was set at 3.39 cm^2/mL, and the reaction was carried out for 3 hours.\nA system, to which no surfactants were added, was used as a control.\nThe film area was changed, and the enzyme concentration was set at 50 nM or 500 nM, and thereafter, the activity was measured under the optimal conditions and in the presence of 0.01(v/v) % SDS. Moreover, a comparison was made regarding the case of setting the enzyme concentration at 50 nM and the amount of the degradation product (monohydroxyethyl terephthalate (MHET)) depending on the reaction time.\nThe amount of the degradation product was measured by reverse phase high performance liquid chromatography (HPLC) in accordance with the method described in International Publication WO 2015/025861.\nThe pre-incubation time after addition of SDS was set at 0 or 1 hour, the reaction time was set at 1 hour, the enzyme concentration was set at […], and the film area was set at 3.39 cm^2/mL. Thereafter, a comparison was made in terms of the activity under the optimal conditions.\nThe enzyme concentration was set at 500 nM, the SDS concentration and the film area were changed, and the activity under the optimal conditions was then measured."}, "PETase [2]": {"target": "T1, PETase", "experiment": "pNPB (p-nitrophenyl-butyrate)-hydrolyzing activity", "assay_type": "biochemical, Ideonella sp. No. 201-F6 strain", "details": "0.01 (w/v) % SDS; enzyme 250 nM; substrate pNPB", "method": "In the following examples, the activity of PETase (PET-hydrolyzing activity) was measured using, as indicators, the amount of a degradation product and pNPB (p-nitrophenyl-butyrate)-hydrolyzing activity. Hereafter, a method of measuring pNPB (p-nitrophenyl-butyrate)-hydrolyzing activity is described.\npNPB used as an artificial substrate in the measurement of esterase activity is hydrolyzed into 1-butanoic acid and p-nitrophenol (pNP).\nThe pNPB-hydrolyzing activity immediately after purification of the enzyme was measured. The composition of a reaction solution is shown in Table 1. pNPB was dissolved in dimethyl sulfoxide (DMSO). The enzyme was mixed with a buffer, and the obtained mixture was then incubated at 30° C. for 30 minutes. Thereafter, the substrate was added to the reaction mixture, and a change in the absorbance at 425 nm for 1 minute was measured three times. The inclination (ΔAbs) of the measured absorbance change was applied to the following equation to obtain catalyst turnover frequency.\nTOF: Catalyst turnover frequency; ε: Molar absorption coefficient; c: Enzyme concentration; 1: Thickness of solution layer; Δt: Reaction time.\nThe p-nitrophenyl-butyrate(pNPB)-hydrolyzing activity was measured in the presence of 0.01 (w/v) % SDS, in addition to the conditions shown in Table 1."}, "PETase [3]": {"target": "T1, PETase", "experiment": "Amount of enzyme adsorbed on PET film (SDS-PAGE)", "set-up": "species or system Ideonella sp. No. 201-F6 strain", "details": "SDS 0.01 to 0.04 (w/v) %; enzyme 500 nM; pre-incubation 1 hour; reaction 3 hours; film area 1.13 cm^2/mL", "method": "The amount of the enzyme adsorbed on the film was observed under conditions in which the activity was changed by addition of a surfactant. SDS was added to the reaction system to result in a concentration of 0.01 (w/v) % to 0.04 (w/v) %, in addition to conditions of an enzyme concentration of 500 nM, a pre-incubation time of 1 hour, a reaction time of 3 hours, and a film area of 1.13 cm^2/mL. After completion of the reaction, the film was removed using tweezers, and was then rinsed with distilled water. The film was placed on the lid of a 1.5-mL tube, and thereafter, 10 μL of an SDS-PAGE sample buffer was added thereto. After that, the resultant was left at rest for 10 minutes, and was then centrifuged. The thus centrifuged solution was subjected to SDS-PAGE. Moreover, in addition to the conditions without addition of surfactants, a comparison was made with conditions including addition of DTMA-Cl that was a cationic surfactant."}, "[4]": {"details": "enzyme 50 nM, film area 3.39 cm^2/mL"}, "[5]": {"details": "enzyme 50 nM, film area 1.13 cm^2/mL"}, "[6]": {"details": "enzyme 50 nM, film area 2.26 cm^2/mL"}, "[7]": {"details": "enzyme 50 nM, film area 5.65 cm^2/mL"}, "[8]": {"details": "enzyme 50 nM, film area 9.04 cm^2/mL"}, "[9]": {"details": "enzyme 50 nM, film area 11.3 cm^2/mL"}, "[10]": {"details": "enzyme 500 nM, film area 1.13 cm^2/mL"}, "[11]": {"details": "enzyme 500 nM, film area 2.26 cm^2/mL"}, "[12]": {"details": "enzyme 500 nM, film area 3.39 cm^2/mL"}, "[13]": {"details": "enzyme 500 nM, film area 5.65 cm^2/mL"}, "[14]": {"details": "enzyme 500 nM, film area 9.04 cm^2/mL"}, "[15]": {"details": "enzyme 500 nM, film area 11.3 cm^2/mL"}}}
{"molecule": "CCCCCCCCCCCC[N+](C)(C)C.[Cl-]", "note": "[DTMA-Cl, Dodecyltrimethylammoniumu chloride]", "values": [{"measurement": "PET-hydrolyzing activity compared with control (FIG. 2)", "setting": "PETase [1]; [4]", "result": "the activity was significantly decreased"}]}
{"molecule": "CCCCCCCCCCCCOS(=O)(=O)[O-].[Na+]", "note": "[SDS, Sodium dodecyl sulfate]", "values": [{"measurement": "Relative activity", "setting": "PETase [1]; [5]", "result": 2.47, "unit": "fold"}, {"measurement": "Relative activity", "setting": "PETase [1]; [6]", "result": 1.99, "unit": "fold"}, {"measurement": "Relative activity", "setting": "PETase [1]; [4]", "result": 1.86, "unit": "fold"}, {"measurement": "Relative activity", "setting": "PETase [1]; [7]", "result": 1.75, "unit": "fold"}, {"measurement": "Relative activity", "setting": "PETase [1]; [8]", "result": 1.99, "unit": "fold"}, {"measurement": "Relative activity", "setting": "PETase [1]; [9]", "result": 1.72, "unit": "fold"}, {"measurement": "Relative activity", "setting": "PETase [1]; [10]", "result": 2170, "unit": "fold"}, {"measurement": "Relative activity", "setting": "PETase [1]; [11]", "result": 50.6, "unit": "fold"}, {"measurement": "Relative activity", "setting": "PETase [1]; [12]", "result": 6.01, "unit": "fold"}, {"measurement": "Relative activity", "setting": "PETase [1]; [13]", "result": 3.58, "unit": "fold"}, {"measurement": "Relative activity", "setting": "PETase [1]; [14]", "result": 3.32, "unit": "fold"}, {"measurement": "Relative activity", "setting": "PETase [1]; [15]", "result": 3.11, "unit": "fold"}, {"measurement": "Activity relative to control", "setting": "PETase [1]; addition of SDS, enzyme 50 nM, film area 1.13 cm^2/mL", "result": "approximately 2.5 times"}, {"measurement": "Activity relative to control", "setting": "PETase [1]; addition of SDS, enzyme 50 nM, film area 11.3 cm^2/mL", "result": "approximately 1.7 times"}, {"measurement": "PET-hydrolyzing activity versus control", "setting": "PETase [1]; addition of SDS, enzyme 500 nM", "result": "the activity was exhibited, although almost no activity was exhibited in the case of the control"}, {"measurement": "Activity upon addition of 0.01% SDS", "setting": "PETase [1]; [5]", "result": 793, "unit": "h⁻¹"}, {"measurement": "Activity upon addition of 0.01% SDS", "setting": "PETase [1]; [6]", "result": 901, "unit": "h⁻¹"}, {"measurement": "Activity upon addition of 0.01% SDS", "setting": "PETase [1]; [4]", "result": 1020, "unit": "h⁻¹"}, {"measurement": "Activity upon addition of 0.01% SDS", "setting": "PETase [1]; [7]", "result": 1270, "unit": "h⁻¹"}, {"measurement": "Activity upon addition of 0.01% SDS", "setting": "PETase [1]; [8]", "result": 1680, "unit": "h⁻¹"}, {"measurement": "Activity upon addition of 0.01% SDS", "setting": "PETase [1]; [9]", "result": 1910, "unit": "h⁻¹"}, {"measurement": "Activity upon addition of 0.01% SDS", "setting": "PETase [1]; [10]", "result": 154, "unit": "h⁻¹"}, {"measurement": "Activity upon addition of 0.01% SDS", "setting": "PETase [1]; [11]", "result": 260, "unit": "h⁻¹"}, {"measurement": "Activity upon addition of 0.01% SDS", "setting": "PETase [1]; [12]", "result": 297, "unit": "h⁻¹"}, {"measurement": "Activity upon addition of 0.01% SDS", "setting": "PETase [1]; [13]", "result": 451, "unit": "h⁻¹"}, {"measurement": "Activity upon addition of 0.01% SDS", "setting": "PETase [1]; [14]", "result": 660, "unit": "h⁻¹"}, {"measurement": "Activity upon addition of 0.01% SDS", "setting": "PETase [1]; [15]", "result": 743, "unit": "h⁻¹"}, {"measurement": "Optimal SDS concentration (FIG. 6)", "setting": "PETase [1]; enzyme 500 nM, film area of up to 5.65 cm^2/mL", "result": "0.02 (w/v) %"}, {"measurement": "Optimal SDS concentration (FIG. 6)", "setting": "PETase [1]; enzyme 500 nM, film area of up to 11.3 cm^2/mL", "result": "0.03 (w/v) %"}, {"measurement": "Change over time in amount of PET degradation product / enzyme stability (FIG. 3)", "setting": "PETase [1]; in presence of SDS, enzyme 50 nM, reaction of 3 hours", "result": "almost no activity decrease took place"}, {"measurement": "Amount of degradation product depending on pre-incubation time (FIG. 5)", "setting": "PETase [1]; pre-incubation after SDS addition 0 or 1 hour, reaction 1 hour, enzyme 50 nM, film area 3.39 cm^2/mL", "result": "the amount of a degradation product was changed depending on the pre-incubation time"}, {"measurement": "PET-hydrolyzing activity compared with control (FIG. 2)", "setting": "PETase [1]; [4]", "result": "approximately two times greater than the activity of the control"}, {"measurement": "Reduction of pNPB-hydrolyzing activity after addition of SDS (FIG. 4)", "setting": "PETase [2]", "result": "approximately 5%"}, {"measurement": "Amount of enzyme (protein) adsorbed on film (FIG. 7)", "setting": "PETase [3]", "result": "adsorption of a large amount of protein was confirmed"}]}
{"molecule": "Polysorbate 80 [Tween 80]", "values": [{"measurement": "PET-hydrolyzing activity compared with control (FIG. 2)", "setting": "PETase [1]; [4]", "result": "the activity was found with the surfactants other than Tween 80 and DTMA-Cl"}]}
